Assays:
[1] = test system: Lewis rats; experiment: Endotoxin-induced uveitis (EIU): infiltrating cells and total protein in aqueous humor, histopathology; assay type: in vivo, rat; conditions: zopolrestat alone, no LPS
Protocol: (§1) Six to eight-weeks-old male Lewis rats weighing approximately 150-160 g were used in this study (n=6). All animals were kept in the UTMB's Animal Care Center. All the animal studies were conducted in compliance with the ARVO statement for the use of Animals in Ophthalmic and Vision Research. EIU was induced by a subcutaneous injection of Escherichia coli LPS (200 μg) dissolved in phosphate-buffered saline (PBS, pH 7.4). Rats in ART and ETU+ARI groups were injected intraperitoneally with AR inhibitor zopolrestat (25 mg/kg body weight) dissolved in dimethyl-sulfoxide (DMSO) 24 h before and immediately after LPS injection. Rats of control group received carrier (PBS+20% DMSO) injection.
The rats were euthanized after 3, 6, and 24 h after LPS injection and the aqueous humor (AqH) was collected immediately from eye by an anterior chamber puncture using a 30-gauge needle under the surgical microscope. For cell counting, the AqH samples were suspended in an equal amount of Trypan-blue solution, and the cells were counted using a Hemocytometer under a light microscope (Olympus Optical Ltd). The total protein concentration in the AqH samples was measured using a Biorad protein assay kit (Biorad, CA, USA). The AqH samples were stored in ice water until testing, cell counts and total protein concentrations were measured on the day of sample collection. […]

[2] = test system: TNF-α, NO and PGE2 in aqueous humor; experiment: EIU: TNF-α, NO and PGE2 in aqueous humor (ELISA kits); assay type: in vivo, rat; conditions: 6 and 24 h after EIU-induction
Protocol: as §1
The levels of TNF-α in the AqH (stored at −80° C.) were assessed with commercially available ELISA kit, according to the manufacturer's instructions. The total level of nitrate plus nitrite in the AqH was measured by using a total nitrite colorimetric assay ([…]) kit according to the manufacturer's instructions. PGE2 production was measured by enzyme immunoassay kit following the manufacturer's instructions.

[3] = test system: SAEC; experiment: RW-induced apoptosis in SAEC (annexin V/PI flow cytometry); assay type: cell-based, human; conditions: zopolrestat 20 μM, RW 150 μg/ml, 18 h
Protocol: Small Airway Epithelial cells (SAEC) obtained from Cambrex Bio Science Walkersville, Inc. (Walkersville, Md.) contains normal human SAEC from distal airspace of donor. The cells were cultured according to the supplier's instructions at 37° C. in humidified atmosphere containing 95% air and 5% CO2 in small airway epithelial basal medium (SABM) with supplements containing 52 μg/ml bovine pituitary extract, 0.5 ng/ml human recombinant epidermal growth factor (EGF), 0.5 μg/ml epinephrine, 1 μg/ml hydrocortisone, 10 μg/ml transferrin, 5 μg/ml insulin, 0.1 ng/ml retinoic acid (RA), 6.5 ng/ml triiodothyronine, 50 μg/ml Gentamicin/Amphotericin-B (GA-1000), and 50 μg/ml fatty acid-free bovine serum albumin (BSA).
Approximately 2×10^5 SAEC/well were plated in 6-well plates in triplicate for each group. After 24 hours, the medium was replaced with serum-free SABM with or without zopolrestat (20 μM). The cells were induced by RW (150 μg/mL) and incubated for 18 h. Apoptotic cell death was examined using the annexin V-FITC/PI, (molecular probes, Invitrogen) according to the manufacturer's instructions. Twenty thousand events were acquired for each sample and analyzed by flow cytometry using the LYSIS II software (FACScan, BD Pharmingen).

[4] = test system: SAEC; experiment: RW-induced ROS generation in SAEC (DHE); assay type: cell-based, human; conditions: SAEC preincubated with AR inhibitor, RW 150 μg/mL
Protocol: Dihydroethidium (DHE, Molecular Probes) staining for superoxide was carried out as described previously. Briefly, Approximately 1×10^5 cells were seeded on chambered slides and starved in serum-free SABM with or without AR inhibitor for 24 h. The cells were treated with RW for 16 h. SAEC were rinsed with cold PBS and incubated in PBS containing HEt (2.5 mmol/L) at 37° C. for 15 minutes. Cells were rinsed in PBS and mounted with Vectashield Hard Set™ mounting medium with DAPI (Vector Laboratories Inc., Burlingame, Calif.). The image of ethidium staining was measured with a Nikon epifluorescence microscope with a 585 nm long-pass filter.

[5] = test system: NF-κB; experiment: NF-κB-dependent SEAP reporter assay in RW-treated SAEC; assay type: cell-based, human
Protocol: The SAEC (1×10^5 cells/well) were plated in 24-well plates, serum-starved in SABM for 24 hours with or without AR inhibitors, sorbinil and zopolrestat (20 μM), and transiently transfected with pNF-κB-secretory alkaline phosphatase (SEAP) construct or control plasmid pTAL-SEAP DNA (Clontech, Palo Alto, Calif.) using the LipofectAMINE Plus reagent. After 6 hours of transfection, medium was replaced with fresh medium and cells were treated with RW (50 μg/mL) for 48 hours. The cell culture medium was harvested, centrifuged and supernatant was analyzed for SEAP activity, essentially as described by the manufacturer (Clontech, Palo Alto, Calif.), using a 96-well chemiluminescence plate reader.

[6] = test system: SAEC; experiment: TNF-α- and LPS-induced ROS generation in SAEC (DHE); assay type: cell-based, human; conditions: TNF-α 2 nM or LPS 1 μg/mL, 16 h
Protocol: Dihydroethidium (DHE, Molecular Probes) staining for superoxide was carried out as described previously. Briefly, approximately 1×10^5 cells were seeded on chambered slides and starved in serum-free basal medium with AR inhibitor or carrier for 24 h. The cells were treated with TNF-α (2 nM) or LPS (1 μg/mL) or carrier for an additional 16 h. SAEC were rinsed with cold PBS and incubated in PBS containing HEt (2.5 μmol/L) at 37° C. for 15 min. Cells were rinsed in PBS and mounted with fluorsave mounting medium containing DAPI (Vector Laboratories Inc., Burlingame, Calif.). The image of ethidium staining was measured with a Nikon epifluorescence microscope with a 585 nm long-pass filter.

O=C(O)Cc1nn(Cc2nc3cc(C(F)(F)F)ccc3s2)c(=O)c2ccccc12 [zopolrestat]
infiltration of cells, H&E sections, compound alone [1]: No significant infiltration of cells | reduction of TNF-α concentration in AqH [2]: > 60% | prevention of RW-induced cell death [3]: > 80% | RW-induced increase in cellular ROS levels [4]: prevented these changes | inhibition at 20 µM ([5]; Homo sapiens, SAEC, AR inhibitor 20 μM, RW 50 μg/mL 48 hours, read-out: inhibition of RW-induced NF-κB-dependent SEAP activation): > 60% | NF-κB-SEAP activity, compound alone ([5]; no RW): did not affect | TNF-α- and LPS-induced increase in ROS levels [6]: prevented these changes
